The results in this text go back to patent US12303594B2, “Antimicrobial and anti-inflammatory compositions” (The Texas A&M University System, priority 2015, dated 2025).

Series [1] deals with PA HP3. The series is described as follows: Endpoint time-kill synergy study. Conditions: ibuprofen with sub-MIC antimicrobial vs antimicrobial alone, 9 hours.
Series [2] is described as follows: Bulk and tapped density, compressibility index and Hausner ratio. Format: physicochemical. On the procedure:
In this modified method, a 10 mL graduated cylinder fitted with a molded adapter substituted the 100 mL graduated cylinder in the tapped density tester. The compressibility index (CI) and Hausner ratio (HR) calculations were performed according to the following formulas: The tapped density (rT) calculations were performed using a tapped density tester (Agilent Technologies, Santa Clara, CA, USA) with a modified method from the USP for a small mass of powder. In this modified method, a 10 mL graduated cylinder fitted with a molded adapter substituted the 100 mL graduated cylinder for the calculations of the bulk density (rB) and the use in the tapped density tester. The compressibility index (CI) and the Hausner ratio (HR) calculations were performed according to the following formulas: […]

Series [3] can be described thus: Solubilization in aqueous DMSO/phosphate buffer solution. Format: physicochemical. Conditions: aqueous solution of 1% v/v DMSO in phosphate buffer, DMSO (1% v/v) and phosphate (PO4) buffer, read-out: concentration solubilized.
Series [4] can be described thus: Particle size distribution by laser light diffraction. It is filed as physicochemical. On the procedure: The particle size distribution (PSD) D10, D50, and D90 values for each sample were defined as particle diameters at the 10th, 50th, and 90th percentile and the span value was calculated according to Equation 2: […]
PSD analysis by laser light diffraction: PSDs were determined using a Sympatec Helos equipped with a Cuvette module (System-Partikel-Technik GmbH, Clausthal-Zellerfeld, Germany). Data were analyzed using the Sympatec WINDOX software. For each measurement, per a previously optimized method, about 2 mg of powder was dispersed in 0.5 mL of 0.1% (w/v) sodium dodecyl sulfate in water and the sample was sonicated for 5 min. […] After the reference measurement, 50 μL aliquots of the sonicated suspension were added to the cell to achieve optical concentrations of between 10 to 20% and the total of six measurements were performed on each sample. Formulations immediately following air-jet milling (25IBU10.1, 25IBU10.2) and after 6 months (25IBU10.1**, 25IBU10.2**) stored at RT (IBU10.1), or at −80° C. (IBU10.2) were analyzed.
PSDs were determined using a Sympatec Helos equipped with a Cuvette module (System-Partikel-Technik GmbH, Clausthal-Zellerfeld, Germany). Data were analyzed using the Sympatec WINDOX software. For each measurement per a previously optimized method, about 2 mg of powder was dispersed in 0.5 mL of 0.1% (w/v) SLS in water and the sample was sonicated for 5 minutes. […] After the reference measurement, 50 μL aliquots of the sonicated suspension were added to the cell to achieve optical concentrations of between 10 to 20% and the total of six measurements were performed on each sample. Analyzed samples included: unprocessed IBU and IND as well as the milled samples from different sections of the jet mill including the tube after grinding chamber (bfC), the cyclone (C), the collection vessel adapter (D), the collection bag adapter (E), the collection vessel (G) and the collection bag (H) for each run. The span value was calculated according to Equation 2.
To estimate the overall D10, D50, and D90 values for the combined recovered fractions associated with each run, stacked bar charts were graphed and analyzed to determine the yield normalized cumulative PSDs. Each stacked bar corresponded to a particle size bin and its height corresponded to the volume density distributions' weighted averages by the yield for each segment of the jet mill. The D10, D50, and D90 values for the normalized cumulative PSDs were the particle sizes corresponding to the 10, 50, and 90% area of the stacked bar chart respectively.
Tween 20 and sodium lauryl sulfate (SLS) were purchased from Fisher Scientific (Fisher Scientific, Pittsburgh, PA, USA), and dH2O was used for preparing solutions. […] A reference measurement was done in 0.1% (v/v) Span 85 in light mineral oil. After a reference measurement, aliquots of […] of sonicated suspension were added to achieve optical concentrations from 10 to 20% for a total of six measurements.
Furthermore, D10, D50, and D90 values for each sample were defined as particle diameters at the 10th, 50th, and 90th percentile of the PSD. Span was calculated according to Equation 2. Normalized cumulative PSDs were composed of yield-normalized distributions, where they were depicted as stacked bar charts. D10, D50, and D90 values for normalized cumulative PSDs were calculated by approximating particle sizes associated with 10%, 50%, and 90% area of the stacked bar chart.

The subject of series [5] is Escherichia coli strain EC J53+pmg101. The series is described as follows: In vitro bacterial growth study (OD600). The settings on record: 10 μg/mL or 1 μg/mL ibuprofen solution added 1:1 (v:v). Format: cell-based.
Series [6] relates to PA01. The series is described as follows: In vivo survival study after P. aeruginosa infection. More on the design: species or system mice. How it is done:
[…]. […] […]. Also, the mice were weighed and assigned clinical scores, a semi-quantitative metric that rates their signs of infection from asymptomatic (0) to moribund (6), at the start of the study, at 12 hours, and at the termination of the study. […]. For this study, the mice were administered treatment on the same schedule and were observed continuously for their time of death over the course of 72 hours, by the end of which any surviving mice begin to recover. […].

Where [7] appears, read: collection bag fraction or stock, Table 8.
Setting [8] is: fraction used for testing (IBU collection bag, IND cyclone) or unprocessed powder.

SMILES strings stand for the structures.

`CC(C)Cc1ccc(C(C)C(=O)O)cc1` (stereo not drawn) [ibuprofen, 2(4-isobutylphenyl)propanoic acid]: in series [1], the “killing efficacy of ceftazidime and gentamicin (CFU/ml)” value was “significantly increased the killing efficacy of both ceftazidime and gentamicin”. In series [2], the bulk density came to 0.268 g/mL, the tap density was 0.441 g/mL, the “ρB (bulk density)” value amounted to 0.27 g/mL and the “ρT (tapped density)” value was determined as 0.44 g/mL. The solubility in series [3] was at most 5000 µg/mL. In series [4] (setting [7]), this compound displayed a D50 of 48.0 μm, a D90 of 106.7 μm and a Span of 1.8. In series [4] (setting [8]), the Span stood at 1.84 and the “median size (d50)” value is 48 μm. In series [5], the “bacterial growth (OD600)” value was “slowed and/or delayed the growth”. In series [6] (72 hours, treated mice), the survival stood at 92%. The weight loss result in series [6] (day 3) was “less weight loss”. In series [6] (days 2 and 3), the clinical scores result was “significantly better clinical scores”.
